Where a SMILES comes first, the peptide text is derived from it. [ ]: non-standard residue; d: D form. Dmt = Cc1cc(O)cc(C)c1C[C@H](N)C(=O)O
Tested on: mitoplasts from WT and Δcrd1 yeast
Assay: ANS-detected surface potential of mitoplasts
Parameters: species or system Saccharomyces cerevisiae
From the text: Figure 6. Interaction of SS-31 with isolated mitochondria. A, [ald]SS-31 binding with differing phospholipid composition. Left, percentages of total phospholipid of each species (phosphatidylcholine (PC), phosphatidylethanolamine (PE), cardiolipin (CL), monolyso-CL (MLCL), phosphatidylglycerol (PG), phosphatidic acid (PA), phosphatidylinositol (PI), phosphatidylserine (PS), and lysophosphatidylcholine (LPC)) in mitochondria from WT, Δtaz1, and Δcrd1 strains measured by shotgun lipidomics. Right, binding of 1 μM [ald]SS-31 with mitochondria isolated from WT, Δtaz1, and Δcrd1 yeast strains quantified as the mean fractional increase (F/F0) in aladan emission with increasing mitochondria concentration for fully energized mitochondria. Inset, relative binding of [ald]SS-31 to mitochondria (0.2 mg ml^−1) in the presence or absence of 1 μM valinomycin (val) as indicated. Values shown are means ± S.D. (error bars) (n = 3). B, comparison of [ald]SS-31 binding to mitochondria and model membranes. […]
The final goal of these experiments was to evaluate the effect of SS peptides on the surface electrostatic properties of mitochondrial membranes. […] We therefore compared the titration of mitoplasts with SS-31 and mono- and divalent cations (K^+ and Ca^2+, respectively) to evaluate the relative effects of each species on ANS-detected ψs (Fig. 6C). […]

Cc1cc(O)cc(C)c1C[C@H](NC(=O)[C@H](N)CCCNC(=N)N)C(=O)N[C@@H](CCCCN)C(=O)N[C@@H](Cc1ccccc1)C(N)=O [SS-31, D-Arg-2′6′-dimethyl-Tyr-Lys-Phe-NH2] (H-[dR][Dmt]KF-NH2)
effect of peptide addition prior to CaCl2 titration on Ca2+-mediated decrease in ψs (WT mitoplasts, 20 μM SS-31 added before CaCl2): strongly blunted the effects of Ca^2+ on surface potential | effect on ANS fluorescence (ψs) of mitoplasts (titration of WT and Δcrd1 mitoplasts, n = 3): increase in ANS fluorescence

Source: PMC7247319, “The mitochondria-targeted peptide SS-31 binds lipid bilayers and modulates surface electrostatics as a key component of its mechanism of action” (The Journal of Biological Chemistry, 2020)
